Test [1] deals with intracellular phosphorylation of EGFR (Tyr1068) in PC-9 cells (Homo sapiens, UniProt P00533, DEL746-750). The experiment in a line: PC-9 pEGFR AlphaLISA assay. It counts as cell-based. The following applies: 4 hours incubation, read-out: Phos EGFR PC9 IC50. On the procedure:
PC-9/A431 pEGFR AlphaLISA Assays
Inhibitory effects of compounds were evaluated in cellular assays that measure level of intracellular phosphorylation of EGFR in PC-9 (ECACC, #90071810, Milipore/Sigma) and A431 cell lines (ATCC, CRL-1555) using AlphaLISA sureFire ultra p-EGFR (Tyr1068) assay kit (PerkinElmer, ALSU-PEGFR-A50K). PC-9 cells were seeded at 3.125×10^5 cells/ml in 40 μL phenol-free DMEM supplemented with 10% FBS per well of a 384 well plate (Corning, 3764), while A431 were seeded at […] in 40 μL in phenol-free DMEM with 0.5% FBS. Cells were allowed to adhere overnight at 37° C./5% CO2. On the next day, compounds were transferred at 4-fold, 10-point serial dilution from compound source plate to cell plates using liquid handler Echo550 and were incubated at 37° C./5% CO2 for 4 hours. A431 cells were stimulated prior harvesting for 10 min with EGF at final concentration of 30 ng/ml in the incubator. Medium was removed from the plates and cells were lysed with 10 μL of 1× AlphaLISA lysis buffer (supplemented with 1× protease/phosphatase inhibitor cocktail) followed by shaking at 600 rpm for 30 minutes at room temperature. Lysates were transferred to Optiplate (Apricot designs) and 5 ul of 1× acceptor bead mix (prepared just before use) was added to each well followed by incubation at room temperature for 1.5-2 h in dark. Then 5 μL of freshly-made donor bead mix is added to each well under subdued lighting or green filters, was mixed well on the shaker and the plate was sealed and left for an overnight incubation at room temperature in dark. On the next day, the plate was read the Envision using standard AlphaLisa settings. Percent of pEGFR inhibition was plotted against log concentration of compounds to generate IC50 values.
A general note: Bead proximity is the source of the signal in Alpha formats.

Test [2] deals with T1, EGFR L858R (Homo sapiens, UniProt P00533, L858R).
T1 construct: purchased SignalChem E10-122BG
T1 sequence (P00533 25-1210 L858R): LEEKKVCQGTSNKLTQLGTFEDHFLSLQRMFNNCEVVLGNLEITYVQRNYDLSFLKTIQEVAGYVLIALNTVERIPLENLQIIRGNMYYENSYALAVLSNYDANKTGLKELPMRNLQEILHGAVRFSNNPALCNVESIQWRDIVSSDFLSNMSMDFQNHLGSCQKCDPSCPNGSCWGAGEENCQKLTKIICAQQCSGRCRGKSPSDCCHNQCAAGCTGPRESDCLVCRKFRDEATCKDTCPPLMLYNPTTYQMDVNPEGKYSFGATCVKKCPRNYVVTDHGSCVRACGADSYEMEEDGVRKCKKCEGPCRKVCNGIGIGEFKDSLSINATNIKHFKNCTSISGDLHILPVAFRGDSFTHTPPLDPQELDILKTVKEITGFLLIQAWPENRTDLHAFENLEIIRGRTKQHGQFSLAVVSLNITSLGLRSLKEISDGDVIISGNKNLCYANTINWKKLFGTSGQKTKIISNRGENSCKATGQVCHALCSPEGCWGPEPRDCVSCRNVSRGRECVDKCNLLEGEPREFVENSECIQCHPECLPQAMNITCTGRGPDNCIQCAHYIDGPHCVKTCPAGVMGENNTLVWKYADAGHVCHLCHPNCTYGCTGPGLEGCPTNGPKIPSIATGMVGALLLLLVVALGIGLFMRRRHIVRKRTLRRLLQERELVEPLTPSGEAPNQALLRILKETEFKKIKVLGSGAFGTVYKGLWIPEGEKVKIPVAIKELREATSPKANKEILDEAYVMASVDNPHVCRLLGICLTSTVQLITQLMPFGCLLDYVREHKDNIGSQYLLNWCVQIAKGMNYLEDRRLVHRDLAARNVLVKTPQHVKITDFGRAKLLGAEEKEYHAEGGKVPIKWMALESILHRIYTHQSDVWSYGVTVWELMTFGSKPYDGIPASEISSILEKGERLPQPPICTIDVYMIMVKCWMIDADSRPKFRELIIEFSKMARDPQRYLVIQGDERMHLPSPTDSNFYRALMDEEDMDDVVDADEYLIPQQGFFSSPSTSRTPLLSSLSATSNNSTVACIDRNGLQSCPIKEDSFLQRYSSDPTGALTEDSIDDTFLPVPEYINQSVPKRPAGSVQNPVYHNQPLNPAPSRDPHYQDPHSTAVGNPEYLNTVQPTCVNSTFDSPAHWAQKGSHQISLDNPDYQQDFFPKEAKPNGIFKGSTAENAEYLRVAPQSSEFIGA
As to the kind of experiment: Biochemical EGFR inhibition assay (Caliper mobility shift), EGFR L858R. The following applies: biochemical Caliper mobility shift assay, EGFR L858R enzyme; read-out: Enz EGFR L858R IC50. As to the method:
(§1) Inhibitory effects of the compounds of the disclosure were measured in biochemical assays that measure the phosphorylation activity of EGFR enzyme phosphorylates 2.5 micromolar 5-FAM-[…]-CONH2 peptide substrate (ProfilerPro Kinase Peptide Substrate 22, PerkinElmer, Part #760366) in the presence of adenosine-5′-triphosphate (ATP) and varying concentrations of the test compound in 100 mM 2-[4-(2-hydroxyethyl)piperazin-1-yl]ethanesulfonic acid (HEPES), pH 7.5, 10 mM MgCl2, 0.015% Brij-35, 1 mM dithiothreitol (DTT), 1.0% dimehylsulfoxide (DMSO). Assays were performed at 1.0 mM ATP or at ATP Km of the EGFR enzymes. Reactions proceeded until between 10% to 20% total peptides were phosphorylated at room temperature (25° C.) and were terminated with 35 mM 2,2′,2″,2′″-(ethane-1,2-diyldinitrilo)tetraacetic acid (EDTA). Product was detected using the Caliper mobility shift detection method where the phosphorylated peptide (product) and substrate were electrophoretically separated and measured. Percent activity was plotted against log concentration of compound and points to generate an apparent IC50. The following enzyme forms of • EGFR were examples that were used in these assays: • EGFR WT (SignalChem, E10-112G) • EGFR L858R (SignalChem, E10-122BG) • EGFR (d746-750) (SignalChem, E10-122JG) • EGFR L858R C797S (SignalChem, E10-122ZG) • EGFR (d746-750) C797S (SignalChem, E10-122TG)

Test [3] deals with T2, EGFR (d746-750) (Homo sapiens, UniProt P00533, DEL746-750).
T2 construct: purchased SignalChem E10-122JG
T2 sequence (P00533 with tags, fused parts or gaps DEL746-750 limits assumed): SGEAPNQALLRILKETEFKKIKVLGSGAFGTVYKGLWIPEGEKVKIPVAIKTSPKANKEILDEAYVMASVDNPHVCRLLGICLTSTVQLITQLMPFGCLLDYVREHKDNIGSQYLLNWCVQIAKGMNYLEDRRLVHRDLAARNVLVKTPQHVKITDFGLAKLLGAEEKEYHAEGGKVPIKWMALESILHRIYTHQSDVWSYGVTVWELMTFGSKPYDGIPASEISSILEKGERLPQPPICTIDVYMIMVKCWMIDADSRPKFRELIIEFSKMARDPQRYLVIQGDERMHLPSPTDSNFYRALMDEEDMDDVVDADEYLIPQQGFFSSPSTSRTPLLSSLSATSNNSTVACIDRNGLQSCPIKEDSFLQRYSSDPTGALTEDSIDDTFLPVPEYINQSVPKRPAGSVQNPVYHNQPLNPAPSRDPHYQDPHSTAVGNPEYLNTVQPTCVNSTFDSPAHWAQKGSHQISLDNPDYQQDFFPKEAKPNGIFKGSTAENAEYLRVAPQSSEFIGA
As to the kind of experiment: Biochemical EGFR inhibition assay (Caliper mobility shift), EGFR (d746-750). The conditions noted are these: biochemical Caliper mobility shift assay, EGFR Exon 19-del enzyme; read-out: Enz EGFR Exon 19-del IC50. On the procedure:
as §1

Where only a bound is given, the exact number is not on record here.

Sequence of intracellular phosphorylation of EGFR (Tyr1068) in PC-9 cells (P00533 with tags, fused parts or gaps DEL746-750): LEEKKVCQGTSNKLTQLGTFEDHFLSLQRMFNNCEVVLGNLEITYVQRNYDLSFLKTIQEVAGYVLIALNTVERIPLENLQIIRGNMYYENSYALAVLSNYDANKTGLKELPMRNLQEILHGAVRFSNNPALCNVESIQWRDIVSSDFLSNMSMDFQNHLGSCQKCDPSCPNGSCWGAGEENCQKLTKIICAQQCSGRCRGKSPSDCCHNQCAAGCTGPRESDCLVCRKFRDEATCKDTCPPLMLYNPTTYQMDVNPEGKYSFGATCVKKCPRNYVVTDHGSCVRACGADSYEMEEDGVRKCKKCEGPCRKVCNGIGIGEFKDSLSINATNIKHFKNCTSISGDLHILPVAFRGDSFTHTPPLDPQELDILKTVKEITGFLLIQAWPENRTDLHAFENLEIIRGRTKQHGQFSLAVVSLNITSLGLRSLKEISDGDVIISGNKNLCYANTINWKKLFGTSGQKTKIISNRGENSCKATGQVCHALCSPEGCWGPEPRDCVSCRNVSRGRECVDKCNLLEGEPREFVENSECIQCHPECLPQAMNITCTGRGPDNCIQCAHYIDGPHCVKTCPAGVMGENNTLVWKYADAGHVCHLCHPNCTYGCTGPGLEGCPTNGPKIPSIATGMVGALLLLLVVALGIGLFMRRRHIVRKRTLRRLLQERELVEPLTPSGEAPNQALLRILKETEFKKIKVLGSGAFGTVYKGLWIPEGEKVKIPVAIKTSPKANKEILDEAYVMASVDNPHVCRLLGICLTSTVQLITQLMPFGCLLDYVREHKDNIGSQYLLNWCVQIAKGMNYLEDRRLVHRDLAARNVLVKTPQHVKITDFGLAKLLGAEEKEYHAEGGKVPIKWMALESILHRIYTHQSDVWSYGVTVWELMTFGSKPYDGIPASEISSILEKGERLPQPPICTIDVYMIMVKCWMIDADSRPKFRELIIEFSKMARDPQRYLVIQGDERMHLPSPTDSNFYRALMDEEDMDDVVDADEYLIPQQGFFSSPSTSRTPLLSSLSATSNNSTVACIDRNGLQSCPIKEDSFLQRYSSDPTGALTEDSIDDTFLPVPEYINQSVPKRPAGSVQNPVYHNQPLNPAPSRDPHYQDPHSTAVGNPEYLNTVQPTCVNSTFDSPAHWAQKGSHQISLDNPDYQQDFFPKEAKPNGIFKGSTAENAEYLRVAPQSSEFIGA

As to `CCN1CCC(Oc2cc(-c3cnn(C)c3)cc3ncnc(Nc4ccc5ncsc5c4)c23)C1=O` (racemic) [Example 58, (rac)-3-((4-(benzo[d]thiazol-6-ylamino)-7-(1-methyl-1H-pyrazol-4-yl)quinazolin-5-yl)oxy)-1-ethylpyrrolidin-2-one], the IC50 in test [1], in test [2] and in test [3] was no more than 10 nM each time.

Regarding `CC(C)N1CCC(Oc2cc(-c3cnn(C)c3)cc3ncnc(Nc4ccc5ncsc5c4)c23)C1=O` (racemic) [Example 62, (rac)-3-((4-(benzo[d]thiazol-6-ylamino)-7-(1-methyl-1H-pyrazol-4-yl)quinazolin-5-yl)oxy)-1-isopropylpyrrolidin-2-one], the concentration for half-maximal inhibition (IC50) in test [1], in test [2] and in test [3] was no more than 10 nM in each case.

In the case of `COc1cc2ncnc(Nc3ccc4ncsc4c3)c2cc1-c1cnn([C@@H]2CCNC[C@@H]2F)c1` (racemic) [Example 164, cis-N-(6-(1-((3R,4S)-3-fluoropiperidin-4-yl)-1H-pyrazol-4-yl)-7-methoxyquinazolin-4-yl)benzo[d]thiazol-6-amine], the half-inhibitory concentration (IC50) in test [1] is 10.1 to 50 nM; in test [2], no more than 10 nM; in test [3], no more than 10 nM.

As to `COc1cc2ncnc(Nc3ccc4ncsc4c3)c2cc1-c1cnn([C@@H]2CCN(C)C[C@@H]2F)c1` (racemic) [Example 165, cis-N-(6-(1-((3R,4S)-3-fluoro-1-methylpiperidin-4-yl)-1H-pyrazol-4-yl)-7-methoxyquinazolin-4-yl)benzo[d]thiazol-6-amine], the half-inhibitory concentration (IC50) in test [1], in test [2] and in test [3] was no more than 10 nM in each case.

Consider `COc1cc2ncnc(Nc3ccc4ncsc4c3)c2cc1-c1cnn([C@H]2CCNC[C@@H]2F)c1` (racemic) [Example 168, trans-N-(6-(1-((3S,4S)-3-fluoropiperidin-4-yl)-1H-pyrazol-4-yl)-7-methoxyquinazolin-4-yl)benzo[d]thiazol-6-amine], for which the 50% inhibitory concentration (IC50) is 10.1 to 50 nM in test [1], no more than 10 nM in test [2] and no more than 10 nM in test [3].

On to `COc1cc2ncnc(Nc3ccc4ncsc4c3)c2cc1-c1cnn([C@H]2CCN(C)C[C@@H]2F)c1` (racemic) [Example 169, trans-N-(6-(1-((3S,4S)-3-fluoro-1-methylpiperidin-4-yl)-1H-pyrazol-4-yl)-7-methoxyquinazolin-4-yl)benzo[d]thiazol-6-amine], for which the IC50 is 10.1 to 50 nM in test [1], no more than 10 nM in test [2] and no more than 10 nM in test [3].

`Cn1cc(-c2cc(O[C@@H]3CNC[C@H](F)C3)c3c(Nc4ccc5ncsc5c4)ncnc3c2)cn1` (racemic) [Example 329, cis-N-(5-(((3S,5R)-5-fluoropiperidin-3-yl)oxy)-7-(1-methyl-1H-pyrazol-4-yl)quinazolin-4-yl)benzo[d]thiazol-6-amine]: the IC50 in test [1], in test [2] and in test [3] was no more than 10 nM each time.

`Cn1cc(-c2cc(O[C@H]3CNC[C@H](F)C3)c3c(Nc4ccc5ncsc5c4)ncnc3c2)cn1` (racemic) [Example 331, trans-N-(5-(((3R,5R)-5-fluoropiperidin-3-yl)oxy)-7-(1-methyl-1H-pyrazol-4-yl)quinazolin-4-yl)benzo[d]thiazol-6-amine and N-(5-(((3S,5S)-5-fluoropiperidin-3-yl)oxy)-7-(1-methyl-1H-pyrazol-4-yl)quinazolin-4-yl)benzo[d]thiazol-6-amine]: the IC50 in test [1], in test [2] and in test [3] was no more than 10 nM throughout.

Take `CN1CC[C@@H](Oc2cc(-c3cnn(C)c3)cc3ncnc(Nc4ccc5ncsc5c4)c23)[C@@H](F)C1` (racemic) [Example 339, cis-N-(5-(((3S,4R)-3-fluoro-1-methylpiperidin-4-yl)oxy)-7-(1-methyl-1H-pyrazol-4-yl)quinazolin-4-yl)benzo[d]thiazol-6-amine]: the IC50 in test [1], in test [2] and in test [3] was no more than 10 nM each time.

Consider `CN1CC[C@H](Oc2cc(-c3cnn(C)c3)cc3ncnc(Nc4ccc5ncsc5c4)c23)[C@@H](F)C1` (racemic) [Example 343, trans-N-(5-(((3S,4S)-3-fluoro-1-methylpiperidin-4-yl)oxy)-7-(1-methyl-1H-pyrazol-4-yl)quinazolin-4-yl)benzo[d]thiazol-6-amine], for which the concentration for half-maximal inhibition (IC50) in test [1], in test [2] and in test [3] was no more than 10 nM each time.

On to `Cn1cc(-c2cc(O[C@H]3CCNC[C@@H]3F)c3c(Nc4ccc5ncsc5c4)ncnc3c2)c(OC(F)F)n1` (racemic) [Example 370, N-(7-(3-(difluoromethoxy)-1-methyl-1H-pyrazol-4-yl)-5-(((3S,4S)-3-fluoropiperidin-4-yl)oxy)quinazolin-4-yl)benzo[d]thiazol-6-amine], for which the IC50 in test [1], in test [2] and in test [3] was no more than 10 nM throughout.

On to `COc1nn(C)cc1-c1cc(O[C@H]2CNC[C@H]2F)c2c(Nc3ccc4ncsc4c3)ncnc2c1` (racemic) [Example 371, N-(5-(((3S,4R)-4-fluoropyrrolidin-3-yl)oxy)-7-(3-methoxy-1-methyl-1H-pyrazol-4-yl)quinazolin-4-yl)benzo[d]thiazol-6-amine and N-(5-(((3R,4S)-4-fluoropyrrolidin-3-yl)oxy)-7-(3-methoxy-1-methyl-1H-pyrazol-4-yl)quinazolin-4-yl)benzo[d]thiazol-6-amine], for which the half-maximal inhibitory concentration (IC50) in test [1] is 10.1 to 50 nM; in test [2], 10.1 to 50 nM; in test [3], no more than 10 nM.

For the molecule `COc1nn(C)cc1-c1cc(O[C@@H]2CN(C)C[C@H]2F)c2c(Nc3ccc4ncsc4c3)ncnc2c1` (racemic) [Example 376, N-(5-(((3S,4S)-4-fluoro-1-methylpyrrolidin-3-yl)oxy)-7-(3-methoxy-1-methyl-1H-pyrazol-4-yl)quinazolin-4-yl)benzo[d]thiazol-6-amine and N-(5-(((3R,4R)-4-fluoro-1-methylpyrrolidin-3-yl)oxy)-7-(3-methoxy-1-methyl-1H-pyrazol-4-yl)quinazolin-4-yl)benzo[d]thiazol-6-amine], the IC50 in test [1] is 10.1 to 50 nM; in test [2] it was no more than 10 nM; in test [3], no more than 10 nM.

On to `Cn1cc(-c2cc(O[C@@H]3CNC[C@@H]3F)c3c(Nc4ccc5ncsc5c4)ncnc3c2)cn1` (racemic) [Example 379, N-(5-(((3R,4S)-4-fluoropyrrolidin-3-yl)oxy)-7-(1-methyl-1H-pyrazol-4-yl)quinazolin-4-yl)benzo[d]thiazol-6-amine], for which the IC50 in test [1] was greater than 50.1 nM; in test [2], 10.1 to 50 nM; in test [3], no more than 10 nM.

Turning to `Cn1cc(-c2cc(O[C@H]3COC[C@H]3F)c3c(Nc4ccc5ncsc5c4)ncnc3c2)cn1` (racemic) [Example A10, N-(5-(((3S,4R)-4-fluorotetrahydrofuran-3-yl)oxy)-7-(1-methyl-1H-pyrazol-4-yl)quinazolin-4-yl)benzo[d]thiazol-6-amine], the IC50 in test [1], in test [2] and in test [3] was no more than 10 nM throughout.

In the case of `Cn1cc(-c2cc(O[C@H]3CNCC[C@@H]3O)c3c(Nc4ccc5ncsc5c4)ncnc3c2)cn1` (racemic) [Example A45, (3S,4S)-3-((4-(benzo[d]thiazol-6-ylamino)-7-(1-methyl-1H-pyrazol-4-yl)quinazolin-5-yl)oxy)piperidin-4-ol], the IC50 was greater than 50.1 nM in test [1], 10.1 to 50 nM in test [2] and no more than 10 nM in test [3].

A word on the IC50: it is the midpoint of a concentration-inhibition curve.

The values above are taken from patent US20260207602A1, “EGFR INHIBITORS” (Blueprint Medicines Corporation, priority 2022, published 2026).
